biological target: T1, human GPR120 (Homo sapiens, UniProt Q5NUL3); assay: GPR120 pERK AlphaScreen SureFire assay (human); assay type: cell-based; details: CHO cells stably transfected with short form of human GPR120
T1 construct: expressed in transfected cells; host or cells: CHOA12 cells
T1 sequence (Q5NUL3 1-361): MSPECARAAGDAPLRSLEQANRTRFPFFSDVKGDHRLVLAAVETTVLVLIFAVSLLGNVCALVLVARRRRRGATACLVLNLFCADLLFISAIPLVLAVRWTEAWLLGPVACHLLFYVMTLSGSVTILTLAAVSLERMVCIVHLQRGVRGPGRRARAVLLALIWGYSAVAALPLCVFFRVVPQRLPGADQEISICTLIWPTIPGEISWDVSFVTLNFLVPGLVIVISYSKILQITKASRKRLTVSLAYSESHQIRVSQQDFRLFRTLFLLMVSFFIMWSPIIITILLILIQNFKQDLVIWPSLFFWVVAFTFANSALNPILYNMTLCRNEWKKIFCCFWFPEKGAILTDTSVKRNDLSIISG
Procedure, shortened: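 CHOA12 cells stably expressing short-form human GPR120, serum-starved 2 h, were stimulated 7 min at 37 °C with compound (33.33 μM–0.56 nM, 11-point). pERK read by AlphaScreen SureFire; activation normalized to 50 μM linolenic acid and DMSO blank, EC50 by 4-parameter fit.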

| Compound | EC50 [nM] |
| --- | --- |
| O=C(O)COCCC12CCC(c3cccc(Oc4ccccc4)c3)(CC1)OC2 [Example 6, 2-(2-(1-(3-Phenoxyphenyl)-2-oxabicyclo[2.2.2]octan-4-yl)ethoxy)acetic acid] | 560 |
| O=C(O)COCCC12CCC(c3cccc(Oc4ccccn4)c3)(CC1)CO2 [Example 109, 2-(2-(4-(3-(Pyridin-2-yloxy)phenyl)-2-oxabicyclo[2.2.2]octan-1-yl)ethoxy)acetic acid] | 5550 |
| O=C(O)COCCC12CCC(c3cccc(OC4CCCCC4)c3)(CC1)OC2 [Example 8, 2-(2-(1-(3-(Cyclohexyloxy)phenyl)-2-oxabicyclo[2.2.2]octan-4-yl)ethoxy)acetic acid] | 1050 |
| O=C(NCc1ncn[nH]1)[C@@H]1C[C@H]1CCC12CCC(c3cccc(Oc4ccccc4)c3)(CC1)OC2 (single isomer, unassigned) [Example 62, N-((1H-1,2,4-Triazol-5-yl)methyl)-2-(2-(1-(3-phenoxyphenyl)-2-oxabicyclo[2.2.2]octan-4-yl)ethyl) cyclopropanecarboxamide] | 1220 |
| N#Cc1cccc(Oc2cccc(C34CCC(CCOCC(=O)O)(CC3)CO4)c2)c1 [Example 46, 2-(2-(1-(3-(3-Cyanophenoxy)phenyl)-2-oxabicyclo[2.2.2]octan-4-yl)ethoxy)acetic acid] | 2570 |
| O=C(O)CCS(=O)(=O)CC12CCC(c3cccc(Oc4ccccc4)c3)(CC1)OC2 [Example 29, 3-((1-(3-Phenoxyphenyl)-2-oxabicyclo[2.2.2]octan-4-yl)methylsulfonyl)propanoic acid] | 1570 |
| COc1cc(Oc2ccc(F)cc2)cc(C23CCC(CCOCC(=O)O)(CC2)CO3)c1 [Example 92, 2-(2-(1-(3-(4-fluorophenoxy)-5-methoxyphenyl)-2-oxabicyclo[2.2.2]octan-4-yl)ethoxy)acetic acid] | 800 |
| Cc1ccc(Oc2cccc(C34CCC(CCOCC(=O)O)(CC3)CO4)c2)cn1 [Example 115, 2-(2-(1-(3-(6-methylpyridin-3-yloxy)phenyl)-2-oxabicyclo[2.2.2]octan-4-yl)ethoxy)acetic acid] | 5560 |
| O=C(O)[C@@H]1C[C@@H]1CCC12CCC(c3cccc(Oc4ccccc4)c3)(CC1)OC2 (racemic) [Example 32, Cis-2-(2-(1-(3-phenoxyphenyl)-2-oxabicyclo[2.2.2]octan-4-yl)ethyl)cyclopropanecarboxylic acid] | 580 |
| CCNC(=O)[C@@H]1C[C@H]1CCC12CCC(c3cccc(Oc4ccccc4)c3)(CC1)OC2 (single isomer, unassigned) [Example 69, N-Ethyl-2-(2-(1-(3-phenoxyphenyl)-2-oxabicyclo[2.2.2]octan-4-yl)ethyl) cyclopropanecarboxamide] | 4230 |
| OCCCCC12CCC(c3cccc(Oc4ccccc4)c3)(CC1)OC2 [Example 57, 4-(1-(3-Phenoxyphenyl)-2-oxabicyclo[2.2.2]octan-4-yl)butan-1-ol] | 1880 |
| CC(C)COc1cccc(C23CCC(CC[C@@H]4C[C@H]4C(=O)O)(CC2)CO3)c1 (single isomer, unassigned) [Example 66, 2-(2-(1-(3-Isobutoxyphenyl)-2-oxabicyclo[2.2.2]octan-4-yl)ethyl)cyclopropanecarboxylic acid] | 2080 |
| O=C(O)COCCC12CCC(c3cccc(OCC4CCCCC4)c3)(CC1)OC2 [Example 52, 2-(2-(1-(3-(Cyclohexylmethoxy)phenyl)-2-oxabicyclo[2.2.2]octan-4-yl)ethoxy)acetic acid] | 4340 |
| O=C(O)C1CC1CCC12CCC(c3cccc(OC4CCCCO4)c3)(CC1)OC2 (centres unmarked) [Example 61, 2-(2-(1-(3-(Tetrahydro-2H-pyran-2-yloxy)phenyl)-2-oxabicyclo[2.2.2]octan-4-yl)ethyl) cyclopropanecarboxylic acid] | 5230 |
| COc1cccc(Oc2cc(F)cc(C34CCC(CCOCC(=O)O)(CC3)CO4)c2)c1 [Example 82, 2-(2-(1-(3-fluoro-5-(3-methoxyphenoxy)phenyl)-2-oxabicyclo[2.2.2]octan-4-yl)ethoxy)acetic acid] | 810 |
| O=C(O)[C@@H]1C[C@H]1CCC12CCC(c3cccc(Oc4ccc(O)cc4)c3)(CC1)OC2 [Example 74, (1R,2R)-2-(2-(1-(3-(4-hydroxy-phenoxy)phenyl)-2-oxabicyclo[2.2.2]octan-4-yl)ethyl)cyclo-propanecarboxylic acid] | 2530 |
| O=C(O)/C=C\CCC12CCC(c3cccc(Oc4ccccc4)c3)(CC1)OC2 [Example 35, (Z)-5-(1-(3-Phenoxyphenyl)-2-oxabicyclo[2.2.2]octan-4-yl)pent-2-enoic acid] | 660 |

Further compounds by falling EC50, results first:

| EC50 [nM] | Compound |
| --- | --- |
| 550 | O=C(O)COCCC12CCC(c3cc(F)cc(Oc4ccc(F)c(F)c4)c3)(CC1)OC2 [Example 79, 2-(2-(1-(3-(3,4-difluorophenoxy)-5-fluorophenyl)-2-oxabicyclo [2.2.2]octan-4-yl)ethoxy) acetic acid] |
| 540 | O=C(O)[C@@H]1C[C@H]1CCC12CCC(c3cccc(Oc4ccc(F)c(F)c4)c3)(CC1)OC2 [Example 73, (1R,2R)-2-(2-(1-(3-(3,4-difluorophenoxy)phenyl)-2-oxabicyclo[2.2.2]octan-4-yl)ethyl) cyclopropanecarboxylic acid] |
| 450 | O=C(O)COCCC12CCC(c3cccc(Oc4cccc(Cl)c4)c3)(CC1)OC2 [Example 44, 2-(2-(1-(3-(3-chlorophenoxy)phenyl)-2-oxabicyclo[2.2.2]octan-4-yl)ethoxy) acetic acid] |
| 420 | O=C(O)COCCC12CCC(c3cccc(Oc4cc(F)cc(F)c4)c3)(CC1)OC2 [Example 76, 2-(2-(1-(3-(3,5-difluorophenoxy)phenyl)-2-oxabicyclo[2.2.2]octan-4-yl)ethoxy)acetic acid] |
| 350 | O=C(O)[C@H]1C[C@@H]1CCC12CCC(c3cccc(Oc4ccccc4)c3)(CC1)OC2 (single isomer, unassigned) [Example 14] |
| 350 | O=C(O)C1CC1CCC12CCC(c3cccc(Oc4ccccc4)c3)(CC1)OC2 (racemic) [Example 13, trans-2-(2-(1-(3-Phenoxyphenyl)-2-oxabicyclo[2.2.2]octan-4-yl)ethyl)cyclopropanecarboxylic acid] |
| 340 | O=C(O)[C@H]1C[C@@H]1COCC12CCC(c3cccc(Oc4ccccc4)c3)(CC1)OC2 (single isomer, unassigned) [Example 99] |
| 320 | Cc1ccc(Oc2cc(F)cc(C34CCC(CCOCC(=O)O)(CC3)CO4)c2)cc1 [Example 83, 2-(2-(1-(3-fluoro-5-(p-tolyloxy)phenyl)-2-oxabicyclo[2.2.2]octan-4-yl)ethoxy)acetic acid] |
| 310 | O=C(O)COCCC12CCC(c3cc(F)cc(Oc4ccccc4)c3)(CC1)OC2 [Example 23, 2-(2-(1-(3-Fluoro-5-phenoxyphenyl)-2-oxabicyclo[2.2.2]octan-4-yl)ethoxy)acetic acid] |
| 310 | O=C(O)COCCC12CCC(c3cc(F)cc(Oc4ccc(F)cc4)c3)(CC1)OC2 [Example 85, 2-(2-(1-(3-fluoro-5-(4-fluorophenoxy)phenyl)-2-oxabicyclo[2.2.2]octan-4-yl)ethoxy)acetic acid] |
| 260 | O=C(O)C[C@H]1C[C@@H]1CC12CCC(c3cccc(Oc4ccccc4)c3)(CC1)OC2 (single isomer, unassigned) [Example 17] |
| 230 | Cc1ccc(Oc2cccc(C34CCC(CCOCC(=O)O)(CC3)CO4)c2)cc1F [Example 77, 2-(2-(1-(3-(3-fluoro-4-methylphenoxy)phenyl)-2-oxabicyclo[2.2.2]octan-4-yl)ethoxy)acetic acid] |
| 220 | Cc1ccc(Oc2cc(F)cc(C34CCC(CCOCC(=O)O)(CC3)CO4)c2)cc1F [Example 80, 2-(2-(1-(3-fluoro-5-(3-fluoro-4-methylphenoxy)phenyl)-2-oxabicyclo [2.2.2]octan-4-yl)ethoxy) acetic acid] |
| 160 | O=C(O)CC1CC1CC12CCC(c3cccc(Oc4ccccc4)c3)(CC1)OC2 (stereo not drawn) [Example 16, 2-(2-((1-(3-Phenoxyphenyl)-2-oxabicyclo[2.2.2]octan-4-yl)methyl)cyclopropyl)acetic acid (trans)] |
| 60 | O=C(O)CCCCC12CCC(c3cccc(Oc4ccccc4)c3)(CC1)OC2 [Example 2] |

system: C57BL/6 mice; assay: Acute oral glucose tolerance test; assay type: in vivo; details: oral glucose tolerance test in mice, dose of 30 mg/kg, AUC t=0-120 min vs vehicle
Experimental: 1) Acute Oral Glucose Tolerance Test
C57BL/6 mice were housed individually and fed a standard rodent chow diet. At approximately 11 weeks age, after a 5 h fast, these mice were orally treated with vehicle or test compounds 60 min before a glucose challenge (2 g/kg). Blood glucose levels were determined from tail bleeds taken at −60, 0, 15, 30, 60 and 120 min after the glucose challenge. The blood glucose excursion profile from t=0-120 min was used to calculate an area under the curve (AUC) for compound treatment. This AUC for compound treatment is compared to vehicle treatment.
In an oral glucose tolerance test in mice at dose of 30 mg/kg, Examples 6, 14 and 80 reduced glucose AUC levels by 40%, 30% and 60% respectively.

| Compound | reduced glucose AUC levels [%] |
| --- | --- |
| O=C(O)[C@H]1C[C@@H]1CCC12CCC(c3cccc(Oc4ccccc4)c3)(CC1)OC2 (single isomer, unassigned) [Example 14] | 30 |
| O=C(O)COCCC12CCC(c3cccc(Oc4ccccc4)c3)(CC1)OC2 [Example 6, 2-(2-(1-(3-Phenoxyphenyl)-2-oxabicyclo[2.2.2]octan-4-yl)ethoxy)acetic acid] | 40 |
| Cc1ccc(Oc2cc(F)cc(C34CCC(CCOCC(=O)O)(CC3)CO4)c2)cc1F [Example 80, 2-(2-(1-(3-fluoro-5-(3-fluoro-4-methylphenoxy)phenyl)-2-oxabicyclo [2.2.2]octan-4-yl)ethoxy) acetic acid] | 60 |

From patent publication US8962660B2 (Bristol-Myers Squibb Company, priority 2013, dated 2015)
